For the test, the system named is P388. Description: Cytotoxicity against mouse P388 cells. Format: functional. To be noted: read-out: ED50 (the source's name).

SMILES strings stand for the structures. Converted amounts (≈) assume the structure as drawn. Numbered stars: 1 amine (or outer) side, 2 acyl side, 3 side chain; on linkers, the order of the positions; unused ones are H or OH. Square brackets hold non-standard residues; d marks the D form. Peptide text beside a SMILES is read from it. X1 = CC[C@H](C)[C@H](OC(=O)[C@@H](C)[C@@H](CC)N[*:1])C(=O)[*:2]; X2 = C[C@H](N[*:1])C(=O)C(C)(C)C(=O)[*:2]; NMeY = CN[C@@H](Cc1ccc(O)cc1)C(=O)O; NMeF = CN[C@@H](Cc1ccccc1)C(=O)O; NMeL = CN[C@@H](CC(C)C)C(=O)O; NMeV = CN[C@H](C(=O)O)C(C)C; NMeA = CN[C@@H](C)C(=O)O

Turning to `CC[C@H](C)[C@@H]1OC(=O)[C@@H](C)[C@@H](CC)NC(=O)[C@H](C)NC(=O)C(C)(C)C(=O)[C@H](C)NC(=O)[C@H](Cc2ccc(OC)cc2)N(C)C(=O)[C@H](C(C)C)N(C)C(=O)CNC(=O)[C@H](CC(C)C)N(C)C(=O)CNC1=O` [DOLASTATIN 11] (cyclo(A[X1]G[NMeL]G[NMeV][NMeY](Me)[X2])), the EC50 came out at 0.0027 µg/mL (≈ 0.00274 µM). With `CC[C@H](C)[C@@H]1OC(=O)[C@@H](C)[C@@H](CC)NC(=O)[C@H](C)N(C)C(=O)C(C)(C)C(=O)[C@H](C)NC(=O)[C@H](Cc2ccccc2)N(C)C(=O)[C@H](C(C)C)N(C)C(=O)CNC(=O)[C@H](CC(C)C)N(C)C(=O)CNC1=O` [DOLASTATIN 12] (cyclo(G[NMeL]G[NMeV][NMeF][X2][NMeA][X1])) the figure was 0.075 µg/mL (≈ 0.0774 µM).

Values taken from ChEMBL document CHEMBL1147353, “The Isolation of Majusculamide C from the Sponge Ptilocaulis trachys Collected in Enewetak and Determination of the Absolute Configuration of the 2-Methyl-3-aminopentanoic Acid Residue” (1993).
